Test results: patent publication US12281149B2, “Modulators of G-protein coupled receptors” (priority 2021, dated 2025)
Where two headings read alike, the source gives them in different places. *1 amine or outer side, *2 acyl side, *3 side chain or, on linkers, in order; H or OH if unused. Where a SMILES comes first, the peptide text is derived from it. Side-chain parts run from the residue outwards. [ ]: non-standard residue; d: D form. The star is where a group is joined. C20 diacid = O=C(O)CCCCCCCCCCCCCCCCCCC(=O)*; NH(4-OCF3-phenyl) = FC(F)(F)Oc1ccc(N*)cc1; γGlu = O=C(O)[C@H](CCC(=O)[*:2])N[*:1]; NH(4-Cl-phenyl) = Clc1ccc(N*)cc1; NH(4-Me-phenyl) = Cc1ccc(N*)cc1; NH(4-F-phenyl) = Fc1ccc(N*)cc1; X29 = Fc1ccc(N*)c(F)c1; AEEA = NCCOCCOCC(=O)O; Aib = CC(C)(N)C(=O)O; CO = O=C([*:1])[*:2]; GABA = NCCCC(=O)O

Assays:
Type in all cases: cell-based
GLP-1 receptor [1] = target: T1, GLP-1 receptor (Homo sapiens, UniProt P43220); test: HitHunter cAMP assay, GLP-1 receptor; details: for Emax: read-out: Emax GLP-1R
T1 sequence (P43220 24-463): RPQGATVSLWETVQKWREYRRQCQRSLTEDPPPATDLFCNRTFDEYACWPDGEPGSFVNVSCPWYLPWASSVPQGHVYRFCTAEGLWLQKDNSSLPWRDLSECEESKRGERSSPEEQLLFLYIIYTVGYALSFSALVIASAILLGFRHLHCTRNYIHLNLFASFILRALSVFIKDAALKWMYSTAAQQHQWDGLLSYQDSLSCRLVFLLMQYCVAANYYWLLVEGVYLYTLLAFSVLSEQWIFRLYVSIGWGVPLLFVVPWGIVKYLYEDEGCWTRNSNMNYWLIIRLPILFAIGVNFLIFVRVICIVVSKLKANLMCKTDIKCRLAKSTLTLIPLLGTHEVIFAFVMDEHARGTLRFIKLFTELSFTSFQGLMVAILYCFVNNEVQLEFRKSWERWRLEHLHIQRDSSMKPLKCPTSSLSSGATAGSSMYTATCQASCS

GIP receptor [2] = target: T2, GIP receptor (Homo sapiens, UniProt P48546); test: HitHunter cAMP assay, GIP receptor; details: for Emax: read-out: Emax GIP-1R
T2 sequence (P48546 22-466): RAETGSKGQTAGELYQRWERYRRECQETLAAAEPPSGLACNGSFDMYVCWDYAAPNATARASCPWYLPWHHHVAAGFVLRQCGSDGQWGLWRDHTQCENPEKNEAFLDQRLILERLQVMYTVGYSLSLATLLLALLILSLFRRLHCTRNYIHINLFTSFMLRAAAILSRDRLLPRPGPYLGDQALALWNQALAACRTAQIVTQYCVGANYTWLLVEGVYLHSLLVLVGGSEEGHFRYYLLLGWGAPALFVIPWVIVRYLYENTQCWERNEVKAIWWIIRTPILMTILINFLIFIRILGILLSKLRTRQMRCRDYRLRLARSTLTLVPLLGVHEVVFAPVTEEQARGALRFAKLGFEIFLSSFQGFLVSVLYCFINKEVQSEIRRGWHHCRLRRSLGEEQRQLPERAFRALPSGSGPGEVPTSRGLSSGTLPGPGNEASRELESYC

GIP receptor [3] = target: T2, GIP receptor; test: PathHunter β-arrestin assay, GIP receptor; design: host or cells: PathHunter CHO-K1 GIPR β-Arrestin Cell Line
GLP-1 receptor [4] = target: T1, GLP-1 receptor; test: PathHunter β-arrestin assay, GLP-1 receptor; design: host or cells: PathHunter CHO-K1 GLP1R β-Arrestin Cell Line
[5] = CHO cells stably expressing human GLP-1 receptor, cAMP accumulation, 30 min, read-out: EC50 GLP-1R
[6] = CHO cells, cAMP, normalized to maximum signal from GLP-1 (high) and DMSO (low)
[7] = CHO cells stably expressing GIP receptor, cAMP accumulation, 30 min, read-out: EC50 GIP-1R
[8] = CHO cells, cAMP, normalized to maximum signal from GIP (high) and DMSO (low)
[9] = β-arrestin-2 recruitment, PathHunter CHO-K1 GIPR β-Arrestin Cell Line, 90 min at 37° C., normalized to GIP, read-out: GIPR β Arrestin EC50
[10] = β-arrestin-2 recruitment, PathHunter CHO-K1 GLP1R β-Arrestin Cell Line, 90 min at 37° C., normalized to GLP-1, read-out: GLP-1R β Arrestin EC50

SMILES: CC[C@H](C)[C@H](NC(=O)[C@H](CC(C)C)NC(=O)[C@H](Cc1c[nH]c2ccccc12)NC(=O)[C@H](CCC(N)=O)NC(=O)[C@@H](NC(=O)[C@H](Cc1ccccc1)NC(=O)[C@H](C)NC(=O)[C@H](CCCCNC(=O)COCCOCCNC(=O)COCCOCCNC(=O)CC[C@H](NC(=O)CCCCCCCCCCCCCCCCCCC(=O)O)C(=O)O)NC(=O)[C@H](CCC(N)=O)NC(=O)[C@H](C)NC(=O)[C@@H](NC(=O)[C@H](CCCCN)NC(=O)[C@H](CC(=O)O)NC(=O)[C@H](CC(C)C)NC(=O)C(C)(C)NC(=O)[C@@H](NC(=O)[C@H](CO)NC(=O)[C@H](Cc1ccc(O)cc1)NC(=O)[C@H](CC(=O)O)NC(=O)[C@H](CO)NC(=O)[C@@H](NC(=O)[C@H](Cc1ccccc1)NC(=O)[C@@H](NC(=O)CNC(=O)[C@H](CCC(=O)O)NC(=O)CCCNC(=O)CNC(=O)Nc1ccc(F)cc1F)[C@@H](C)O)[C@@H](C)O)[C@@H](C)CC)[C@@H](C)CC)C(C)C)C(=O)N[C@@H](C)C(=O)NCC(=O)NCC(=O)N1CCC[C@H]1C(=O)N[C@@H](CO)C(=O)N[C@@H](CO)C(=O)NCC(=O)N[C@@H](C)C(=O)N1CCC[C@H]1C(=O)N1CCC[C@H]1C(=O)N1CCC[C@H]1C(=O)N[C@@H](CO)C(N)=O [Compound 267] ({X29-CO}-G[GABA]EGTFTSDYSI[Aib]LDKIAQK([AEEA-AEEA-γGlu-C20 diacid])AFVQWLIAGGPSSGAPPPS-NH2)
- EC50 (GLP-1 receptor [1]; [5]): 1 to 10 nM
- Emax (GLP-1 receptor [1]; [6]): 105%
- EC50 (GIP receptor [2]; [7]): 1 to 10 nM
- Emax (GIP receptor [2]; [8]): 106%
- EC50 (GIP receptor [3]; [9]): > 1000 nM
- EC50 (GLP-1 receptor [4]; [10]): > 1000 nM

SMILES: CC[C@H](C)[C@H](NC(=O)[C@H](CC(C)C)NC(=O)[C@H](Cc1c[nH]c2ccccc12)NC(=O)[C@H](CCC(N)=O)NC(=O)[C@@H](NC(=O)[C@H](Cc1ccccc1)NC(=O)[C@H](C)NC(=O)[C@H](CCCCNC(=O)COCCOCCNC(=O)COCCOCCNC(=O)CC[C@H](NC(=O)CCCCCCCCCCCCCCCCCCC(=O)O)C(=O)O)NC(=O)[C@H](CCC(N)=O)NC(=O)[C@H](C)NC(=O)[C@@H](NC(=O)[C@H](CCCCN)NC(=O)[C@H](CC(=O)O)NC(=O)[C@H](CC(C)C)NC(=O)C(C)(C)NC(=O)[C@@H](NC(=O)[C@H](CO)NC(=O)[C@H](Cc1ccc(O)cc1)NC(=O)[C@H](CC(=O)O)NC(=O)[C@H](CO)NC(=O)[C@@H](NC(=O)[C@H](Cc1ccccc1)NC(=O)[C@@H](NC(=O)CNC(=O)[C@H](CCC(=O)O)NC(=O)CCCNC(=O)CNC(=O)Nc1ccc(F)cc1)[C@@H](C)O)[C@@H](C)O)[C@@H](C)CC)[C@@H](C)CC)C(C)C)C(=O)N[C@@H](C)C(=O)NCC(=O)NCC(=O)N1CCC[C@H]1C(=O)N[C@@H](CO)C(=O)N[C@@H](CO)C(=O)NCC(=O)N[C@@H](C)C(=O)N1CCC[C@H]1C(=O)N1CCC[C@H]1C(=O)N1CCC[C@H]1C(=O)N[C@@H](CO)C(N)=O [Compound 268] ({NH(4-F-phenyl)-CO}-G[GABA]EGTFTSDYSI[Aib]LDKIAQK([AEEA-AEEA-γGlu-C20 diacid])AFVQWLIAGGPSSGAPPPS-NH2)
- EC50 (GLP-1 receptor [1]; [5]): 1 to 10 nM
- Emax (GLP-1 receptor [1]; [6]): 95%
- EC50 (GIP receptor [2]; [7]): 1 to 10 nM
- Emax (GIP receptor [2]; [8]): 103%
- EC50 (GIP receptor [3]; [9]): > 1000 nM
- EC50 (GLP-1 receptor [4]; [10]): > 1000 nM

SMILES: CC[C@H](C)[C@H](NC(=O)[C@H](CC(C)C)NC(=O)[C@H](Cc1c[nH]c2ccccc12)NC(=O)[C@H](CCC(N)=O)NC(=O)[C@@H](NC(=O)[C@H](Cc1ccccc1)NC(=O)[C@H](C)NC(=O)[C@H](CCCCNC(=O)COCCOCCNC(=O)COCCOCCNC(=O)CC[C@H](NC(=O)CCCCCCCCCCCCCCCCCCC(=O)O)C(=O)O)NC(=O)[C@H](CCC(N)=O)NC(=O)[C@H](C)NC(=O)[C@@H](NC(=O)[C@H](CCCCN)NC(=O)[C@H](CC(=O)O)NC(=O)[C@H](CC(C)C)NC(=O)C(C)(C)NC(=O)[C@@H](NC(=O)[C@H](CO)NC(=O)[C@H](Cc1ccc(O)cc1)NC(=O)[C@H](CC(=O)O)NC(=O)[C@H](CO)NC(=O)[C@@H](NC(=O)[C@H](Cc1ccccc1)NC(=O)[C@@H](NC(=O)CNC(=O)[C@H](CCC(=O)O)NC(=O)CCCNC(=O)CNC(=O)Nc1ccc(OC(F)(F)F)cc1)[C@@H](C)O)[C@@H](C)O)[C@@H](C)CC)[C@@H](C)CC)C(C)C)C(=O)N[C@@H](C)C(=O)NCC(=O)NCC(=O)N1CCC[C@H]1C(=O)N[C@@H](CO)C(=O)N[C@@H](CO)C(=O)NCC(=O)N[C@@H](C)C(=O)N1CCC[C@H]1C(=O)N1CCC[C@H]1C(=O)N1CCC[C@H]1C(=O)N[C@@H](CO)C(N)=O [Compound 269] ({NH(4-OCF3-phenyl)-CO}-G[GABA]EGTFTSDYSI[Aib]LDKIAQK([AEEA-AEEA-γGlu-C20 diacid])AFVQWLIAGGPSSGAPPPS-NH2)
- EC50 (GLP-1 receptor [1]; [5]): 1 to 10 nM
- Emax (GLP-1 receptor [1]; [6]): 96%
- EC50 (GIP receptor [2]; [7]): 1 to 10 nM
- Emax (GIP receptor [2]; [8]): 103%
- EC50 (GIP receptor [3]; [9]): < 1000 nM
- EC50 (GLP-1 receptor [4]; [10]): > 1000 nM

SMILES: CC[C@H](C)[C@H](NC(=O)[C@H](CC(C)C)NC(=O)[C@H](Cc1c[nH]c2ccccc12)NC(=O)[C@H](CCC(N)=O)NC(=O)[C@@H](NC(=O)[C@H](Cc1ccccc1)NC(=O)[C@H](C)NC(=O)[C@H](CCCCNC(=O)COCCOCCNC(=O)COCCOCCNC(=O)CC[C@H](NC(=O)CCCCCCCCCCCCCCCCCCC(=O)O)C(=O)O)NC(=O)[C@H](CCC(N)=O)NC(=O)[C@H](C)NC(=O)[C@@H](NC(=O)[C@H](CCCCN)NC(=O)[C@H](CC(=O)O)NC(=O)[C@H](CC(C)C)NC(=O)C(C)(C)NC(=O)[C@@H](NC(=O)[C@H](CO)NC(=O)[C@H](Cc1ccc(O)cc1)NC(=O)[C@H](CC(=O)O)NC(=O)[C@H](CO)NC(=O)[C@@H](NC(=O)[C@H](Cc1ccccc1)NC(=O)[C@@H](NC(=O)CNC(=O)[C@H](CCC(=O)O)NC(=O)CCCNC(=O)CNC(=O)Nc1ccc(Cl)cc1)[C@@H](C)O)[C@@H](C)O)[C@@H](C)CC)[C@@H](C)CC)C(C)C)C(=O)N[C@@H](C)C(=O)NCC(=O)NCC(=O)N1CCC[C@H]1C(=O)N[C@@H](CO)C(=O)N[C@@H](CO)C(=O)NCC(=O)N[C@@H](C)C(=O)N1CCC[C@H]1C(=O)N1CCC[C@H]1C(=O)N1CCC[C@H]1C(=O)N[C@@H](CO)C(N)=O [Compound 270] ({NH(4-Cl-phenyl)-CO}-G[GABA]EGTFTSDYSI[Aib]LDKIAQK([AEEA-AEEA-γGlu-C20 diacid])AFVQWLIAGGPSSGAPPPS-NH2)
- EC50 (GLP-1 receptor [1]): 10 to 100 nM
- Emax (GLP-1 receptor [1]; CHO): 91%
- EC50 (GIP receptor [2]): 1 to 10 nM
- Emax (GIP receptor [2]; CHO): 104%
- EC50 (GIP receptor [3]): < 1000 nM
- EC50 (GLP-1 receptor [4]): > 1000 nM

SMILES: CC[C@H](C)[C@H](NC(=O)[C@H](CC(C)C)NC(=O)[C@H](Cc1c[nH]c2ccccc12)NC(=O)[C@H](CCC(N)=O)NC(=O)[C@@H](NC(=O)[C@H](Cc1ccccc1)NC(=O)[C@H](C)NC(=O)[C@H](CCCCNC(=O)COCCOCCNC(=O)COCCOCCNC(=O)CC[C@H](NC(=O)CCCCCCCCCCCCCCCCCCC(=O)O)C(=O)O)NC(=O)[C@H](CCC(N)=O)NC(=O)[C@H](C)NC(=O)[C@@H](NC(=O)[C@H](CCCCN)NC(=O)[C@H](CC(=O)O)NC(=O)[C@H](CC(C)C)NC(=O)C(C)(C)NC(=O)[C@@H](NC(=O)[C@H](CO)NC(=O)[C@H](Cc1ccc(O)cc1)NC(=O)[C@H](CC(=O)O)NC(=O)[C@H](CO)NC(=O)[C@@H](NC(=O)[C@H](Cc1ccccc1)NC(=O)[C@@H](NC(=O)CNC(=O)[C@H](CCC(=O)O)NC(=O)CCCNC(=O)CNC(=O)Nc1ccc(C)cc1)[C@@H](C)O)[C@@H](C)O)[C@@H](C)CC)[C@@H](C)CC)C(C)C)C(=O)N[C@@H](C)C(=O)NCC(=O)NCC(=O)N1CCC[C@H]1C(=O)N[C@@H](CO)C(=O)N[C@@H](CO)C(=O)NCC(=O)N[C@@H](C)C(=O)N1CCC[C@H]1C(=O)N1CCC[C@H]1C(=O)N1CCC[C@H]1C(=O)N[C@@H](CO)C(N)=O [Compound 271] ({NH(4-Me-phenyl)-CO}-G[GABA]EGTFTSDYSI[Aib]LDKIAQK([AEEA-AEEA-γGlu-C20 diacid])AFVQWLIAGGPSSGAPPPS-NH2)
- EC50 (GLP-1 receptor [1]): 1 to 10 nM
- Emax (GLP-1 receptor [1]; CHO): 94%
- EC50 (GIP receptor [2]): 1 to 10 nM
- Emax (GIP receptor [2]; CHO): 105%
- EC50 (GIP receptor [3]): < 1000 nM
- EC50 (GLP-1 receptor [4]): > 1000 nM
